# Laboratory results as given in article PMC8799717, “Pharmacological targeting PIKfyve and tubulin as an effective treatment strategy for double-hit lymphoma” (Cell Death Discovery, 2022).
# Columns and labels:
# Experiment in all cases: biochemical
# Set-up in all cases: KINOMEscan active-site-directed competition binding panel, 468 kinases, percent of DMSO control at 1 uM
# Conditions in all cases: KINOMEscan binding, percent of DMSO control; read-out: Ctrl%
# ARK5 = biological target: T1, ARK5 (Homo sapiens, UniProt O60285)
# T1 construct: gene NUAK1
# AXL = AXL (Homo sapiens, UniProt P30530)
# BRAF = BRAF (Homo sapiens, UniProt P15056)
# BRK = biological target: T2, BRK (Homo sapiens, UniProt Q13882)
# T2 construct: gene PTK6
# T2 sequence (Q13882 whole entry): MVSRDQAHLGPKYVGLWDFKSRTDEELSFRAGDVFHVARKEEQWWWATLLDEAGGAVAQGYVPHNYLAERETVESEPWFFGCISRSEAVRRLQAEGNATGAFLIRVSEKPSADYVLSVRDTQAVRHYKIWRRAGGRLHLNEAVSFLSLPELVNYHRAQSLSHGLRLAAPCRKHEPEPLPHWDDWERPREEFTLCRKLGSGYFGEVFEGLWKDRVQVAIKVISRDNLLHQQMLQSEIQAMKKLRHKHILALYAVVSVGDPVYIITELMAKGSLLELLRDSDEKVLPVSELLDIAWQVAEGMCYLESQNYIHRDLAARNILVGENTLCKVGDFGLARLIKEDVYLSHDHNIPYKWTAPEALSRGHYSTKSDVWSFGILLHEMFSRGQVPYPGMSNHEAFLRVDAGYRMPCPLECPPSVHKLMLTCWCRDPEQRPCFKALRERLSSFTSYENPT
# CAMK1D = CAMK1D (Homo sapiens, UniProt Q8IU85)
# CDK11 = biological target: T3, CDK11 (Homo sapiens, UniProt Q9BWU1)
# T3 construct: gene CDK19
# T3 sequence (Q9BWU1 whole entry): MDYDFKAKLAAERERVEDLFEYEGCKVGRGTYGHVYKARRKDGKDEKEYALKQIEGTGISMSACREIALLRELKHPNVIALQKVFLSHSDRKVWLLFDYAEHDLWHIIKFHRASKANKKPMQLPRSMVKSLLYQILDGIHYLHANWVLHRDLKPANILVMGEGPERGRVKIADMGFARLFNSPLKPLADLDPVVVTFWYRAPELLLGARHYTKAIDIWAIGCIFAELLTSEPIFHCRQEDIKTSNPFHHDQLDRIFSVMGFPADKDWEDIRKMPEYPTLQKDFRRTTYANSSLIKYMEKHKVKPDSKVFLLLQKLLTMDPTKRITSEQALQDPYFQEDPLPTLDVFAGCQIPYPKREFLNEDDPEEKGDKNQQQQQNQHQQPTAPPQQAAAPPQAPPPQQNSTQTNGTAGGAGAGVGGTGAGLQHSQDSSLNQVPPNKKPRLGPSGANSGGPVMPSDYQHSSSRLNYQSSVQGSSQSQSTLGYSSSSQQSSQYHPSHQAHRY
# CSNK1D = CSNK1D (Homo sapiens, UniProt P48730)
# DCAMKL2 = biological target: T4, DCAMKL2 (Homo sapiens, UniProt Q8N568)
# T4 construct: gene DCLK2
# EIF2AK1 = EIF2AK1 (Homo sapiens, UniProt Q9BQI3)
# EPHA5 = EPHA5 (Homo sapiens, UniProt P54756)
# FRK = FRK (Homo sapiens, UniProt P42685)
# Chain of FRK (P42685 whole entry): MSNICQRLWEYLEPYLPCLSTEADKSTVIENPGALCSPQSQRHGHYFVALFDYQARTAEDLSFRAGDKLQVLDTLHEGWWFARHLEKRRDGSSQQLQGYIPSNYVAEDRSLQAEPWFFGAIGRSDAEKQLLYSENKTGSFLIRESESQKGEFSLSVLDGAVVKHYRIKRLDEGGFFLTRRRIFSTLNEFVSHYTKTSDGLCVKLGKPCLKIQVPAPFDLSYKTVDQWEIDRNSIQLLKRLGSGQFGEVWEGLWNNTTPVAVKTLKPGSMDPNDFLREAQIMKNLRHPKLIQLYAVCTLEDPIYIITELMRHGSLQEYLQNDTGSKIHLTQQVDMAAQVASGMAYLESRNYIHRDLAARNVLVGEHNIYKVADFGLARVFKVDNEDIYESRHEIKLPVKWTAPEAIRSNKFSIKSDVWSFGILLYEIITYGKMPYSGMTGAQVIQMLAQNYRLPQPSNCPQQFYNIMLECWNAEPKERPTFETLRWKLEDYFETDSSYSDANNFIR
# IRAK3 = IRAK3 (Homo sapiens, UniProt Q9Y616)
# Chain of IRAK3 (Q9Y616 whole entry): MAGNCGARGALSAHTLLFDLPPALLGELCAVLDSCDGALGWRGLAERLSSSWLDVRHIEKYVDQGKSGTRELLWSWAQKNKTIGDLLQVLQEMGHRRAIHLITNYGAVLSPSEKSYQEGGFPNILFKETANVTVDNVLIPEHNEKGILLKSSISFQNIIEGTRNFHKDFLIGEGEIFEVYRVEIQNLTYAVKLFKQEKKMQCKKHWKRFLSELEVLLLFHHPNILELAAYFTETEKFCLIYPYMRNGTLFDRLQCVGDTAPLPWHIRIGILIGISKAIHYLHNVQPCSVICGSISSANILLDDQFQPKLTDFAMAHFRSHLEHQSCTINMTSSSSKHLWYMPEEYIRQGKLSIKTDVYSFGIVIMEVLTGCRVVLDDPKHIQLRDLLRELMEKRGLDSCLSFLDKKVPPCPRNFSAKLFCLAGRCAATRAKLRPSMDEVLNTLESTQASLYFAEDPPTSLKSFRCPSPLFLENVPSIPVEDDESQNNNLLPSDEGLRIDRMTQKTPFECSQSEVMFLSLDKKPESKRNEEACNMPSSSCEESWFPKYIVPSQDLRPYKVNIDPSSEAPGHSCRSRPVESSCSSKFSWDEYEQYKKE
# JNK2 = biological target: T5, JNK2 (Homo sapiens, UniProt P45984)
# T5 construct: gene MAPK9
# T5 sequence (P45984 whole entry): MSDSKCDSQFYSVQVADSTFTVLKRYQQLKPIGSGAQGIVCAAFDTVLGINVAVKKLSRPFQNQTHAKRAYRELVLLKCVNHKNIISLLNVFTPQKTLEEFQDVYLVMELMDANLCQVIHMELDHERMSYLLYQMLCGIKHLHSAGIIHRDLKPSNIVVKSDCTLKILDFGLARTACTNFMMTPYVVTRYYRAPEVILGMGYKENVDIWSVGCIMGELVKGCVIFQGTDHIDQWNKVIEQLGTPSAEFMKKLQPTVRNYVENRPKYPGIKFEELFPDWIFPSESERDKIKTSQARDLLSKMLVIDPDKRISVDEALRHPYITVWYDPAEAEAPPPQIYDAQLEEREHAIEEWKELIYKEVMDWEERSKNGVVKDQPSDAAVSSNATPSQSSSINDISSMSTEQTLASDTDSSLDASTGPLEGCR
# JNK3 = biological target: T6, JNK3 (Homo sapiens, UniProt P53779)
# T6 construct: gene MAPK10
# MEK3 = biological target: T7, MEK3 (Homo sapiens, UniProt P46734)
# T7 construct: gene MAP2K3
# MLK3 = biological target: T8, MLK3 (Homo sapiens, UniProt Q16584)
# T8 construct: gene MAP3K11
# MTOR = MTOR (Homo sapiens, UniProt P42345)
# NDR2 = biological target: T9, NDR2 (Homo sapiens, UniProt Q9Y2H1)
# T9 construct: gene STK38L
# PIM2 = PIM2 (Homo sapiens, UniProt Q9P1W9)
# PRKCQ = PRKCQ (Homo sapiens, UniProt Q04759)
# Chain of PRKCQ (Q04759 whole entry): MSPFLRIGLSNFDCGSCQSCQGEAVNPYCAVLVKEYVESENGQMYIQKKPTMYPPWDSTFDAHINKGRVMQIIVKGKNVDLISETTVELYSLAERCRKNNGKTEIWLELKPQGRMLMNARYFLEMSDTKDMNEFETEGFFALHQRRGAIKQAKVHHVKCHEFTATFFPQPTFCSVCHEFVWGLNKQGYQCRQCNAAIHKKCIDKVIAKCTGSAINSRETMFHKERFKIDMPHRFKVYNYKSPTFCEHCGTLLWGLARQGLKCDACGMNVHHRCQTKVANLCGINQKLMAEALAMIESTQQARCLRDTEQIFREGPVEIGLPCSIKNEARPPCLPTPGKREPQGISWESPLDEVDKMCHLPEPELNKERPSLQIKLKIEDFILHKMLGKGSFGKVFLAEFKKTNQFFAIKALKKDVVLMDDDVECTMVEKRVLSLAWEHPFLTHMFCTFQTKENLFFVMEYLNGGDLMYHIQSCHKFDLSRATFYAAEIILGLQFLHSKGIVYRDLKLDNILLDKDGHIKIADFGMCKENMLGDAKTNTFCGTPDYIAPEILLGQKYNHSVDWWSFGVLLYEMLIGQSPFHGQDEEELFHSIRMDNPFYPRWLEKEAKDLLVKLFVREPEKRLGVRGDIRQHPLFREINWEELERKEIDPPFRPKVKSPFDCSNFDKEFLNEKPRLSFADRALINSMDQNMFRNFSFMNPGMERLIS
# [1] = biological target: T10, RSK1(Kin.Dom.1-N-terminal) (Homo sapiens, UniProt Q15418)
# T10 construct: gene RPS6KA1; Kin.Dom.1-N-terminal
# STK35 = STK35 (Homo sapiens, UniProt Q8TDR2)
# Chain of STK35 (Q8TDR2 whole entry): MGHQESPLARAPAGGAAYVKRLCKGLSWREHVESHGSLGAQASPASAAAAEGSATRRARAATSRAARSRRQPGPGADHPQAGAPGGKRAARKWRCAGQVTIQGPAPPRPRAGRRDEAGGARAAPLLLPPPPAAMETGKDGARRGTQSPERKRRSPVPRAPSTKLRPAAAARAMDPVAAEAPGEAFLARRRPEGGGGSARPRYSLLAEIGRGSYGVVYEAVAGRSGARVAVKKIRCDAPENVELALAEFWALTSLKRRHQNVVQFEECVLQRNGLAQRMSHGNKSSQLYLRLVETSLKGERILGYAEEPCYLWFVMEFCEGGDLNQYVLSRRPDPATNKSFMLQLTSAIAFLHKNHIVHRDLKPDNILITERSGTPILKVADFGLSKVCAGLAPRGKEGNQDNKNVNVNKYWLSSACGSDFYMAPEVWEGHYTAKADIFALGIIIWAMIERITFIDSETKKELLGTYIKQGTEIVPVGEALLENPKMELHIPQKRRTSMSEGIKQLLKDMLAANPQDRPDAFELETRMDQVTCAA
# TAOK3 = TAOK3 (Homo sapiens, UniProt Q9H2K8)
# Chain of TAOK3 (Q9H2K8 whole entry): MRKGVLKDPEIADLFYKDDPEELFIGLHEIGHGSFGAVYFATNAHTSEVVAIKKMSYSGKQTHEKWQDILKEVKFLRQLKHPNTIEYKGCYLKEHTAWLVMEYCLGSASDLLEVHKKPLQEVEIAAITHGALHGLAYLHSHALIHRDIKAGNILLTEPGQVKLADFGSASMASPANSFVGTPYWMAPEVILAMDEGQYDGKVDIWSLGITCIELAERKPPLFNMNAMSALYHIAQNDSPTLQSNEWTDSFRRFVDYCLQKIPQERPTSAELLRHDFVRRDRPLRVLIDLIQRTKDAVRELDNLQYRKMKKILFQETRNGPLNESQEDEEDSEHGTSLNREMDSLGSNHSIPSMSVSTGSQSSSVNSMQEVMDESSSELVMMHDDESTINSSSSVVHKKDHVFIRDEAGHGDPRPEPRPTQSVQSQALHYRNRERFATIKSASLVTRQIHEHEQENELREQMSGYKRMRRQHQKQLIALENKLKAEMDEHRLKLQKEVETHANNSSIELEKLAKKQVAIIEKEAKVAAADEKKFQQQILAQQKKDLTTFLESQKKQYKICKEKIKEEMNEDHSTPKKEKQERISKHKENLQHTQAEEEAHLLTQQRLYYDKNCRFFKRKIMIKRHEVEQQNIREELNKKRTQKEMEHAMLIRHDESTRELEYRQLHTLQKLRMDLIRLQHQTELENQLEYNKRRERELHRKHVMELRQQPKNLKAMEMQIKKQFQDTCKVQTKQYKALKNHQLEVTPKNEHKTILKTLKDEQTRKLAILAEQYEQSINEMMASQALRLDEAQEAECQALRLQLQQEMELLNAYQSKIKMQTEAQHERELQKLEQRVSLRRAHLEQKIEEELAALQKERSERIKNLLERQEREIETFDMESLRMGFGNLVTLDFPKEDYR
# p38-gamma = biological target: T11, p38-gamma (Homo sapiens, UniProt P53778)
# T11 construct: gene MAPK12
# T11 sequence (P53778 whole entry): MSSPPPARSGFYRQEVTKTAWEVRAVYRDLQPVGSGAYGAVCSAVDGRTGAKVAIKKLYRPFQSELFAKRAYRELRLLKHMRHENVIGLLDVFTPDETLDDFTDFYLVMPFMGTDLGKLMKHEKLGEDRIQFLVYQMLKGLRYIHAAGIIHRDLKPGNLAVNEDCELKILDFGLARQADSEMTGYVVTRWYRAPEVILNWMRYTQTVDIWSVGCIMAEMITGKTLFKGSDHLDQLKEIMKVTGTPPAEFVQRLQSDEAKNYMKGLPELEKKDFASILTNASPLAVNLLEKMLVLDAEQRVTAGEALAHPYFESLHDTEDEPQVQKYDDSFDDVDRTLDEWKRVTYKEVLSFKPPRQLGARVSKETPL
smiles,measurement,setting,value
Cc1ccc(NC(=O)c2cccc(C(F)(F)F)c2)cc1Nc1cc(-c2cccnc2)nc2[nH]ccc12 [HZX-02-059],remaining binding at 1 µM,ARK5,100%
same,remaining binding at 1 µM,AXL,90%
same,remaining binding at 1 µM,BRAF,18%
same,remaining binding at 1 µM,BRK,83%
same,remaining binding at 1 µM,CAMK1D,100%
same,remaining binding at 1 µM,CDK11,79%
same,remaining binding at 1 µM,CSNK1D,96%
same,remaining binding at 1 µM,DCAMKL2,96%
same,remaining binding at 1 µM,EIF2AK1,79%
same,remaining binding at 1 µM,EPHA5,17%
same,remaining binding at 1 µM,FRK,4.7%
same,remaining binding at 1 µM,IRAK3,92%
same,remaining binding at 1 µM,JNK2,99%
same,remaining binding at 1 µM,JNK3,96%
same,remaining binding at 1 µM,MEK3,83%
same,remaining binding at 1 µM,MLK3,87%
same,remaining binding at 1 µM,MTOR,99%
same,remaining binding at 1 µM,NDR2,94%
same,remaining binding at 1 µM,PIM2,88%
same,remaining binding at 1 µM,PRKCQ,88%
same,remaining binding at 1 µM,[1],72%
same,remaining binding at 1 µM,STK35,80%
same,remaining binding at 1 µM,TAOK3,100%
same,remaining binding at 1 µM,p38-gamma,92%
